# Results from publication PMC7997032, “Organic synthesis and anti-influenza A virus activity of cyclobakuchiols A, B, C, and D” (PLoS ONE, 2021).
# System: A/WSN/33 virus
# Experiment: Influenza A viral growth assay (viral titer of culture media); on viral titer of culture media, ave: unit not given here
# Type: cell-based, influenza A H1N1 virus
# Conditions: for viral titer of conditioned media compared with DMSO: A/WSN/34 as printed, 12.5 μM
smiles,measurement,setting,value
"C=C[C@@](C)(/C=C/c1ccc(O)cc1)CCC=C(C)C [(+)-(S)-bakuchiol, reference compound]","viral titer of culture media, ave","A/WSN/33 (WSN), 12.5uM, 12h, average of #1-3 exp (n=9)",15811.1
same,viral titer of conditioned media compared with DMSO,48–72 h,not reduced
same,viral titer of conditioned media compared with DMSO,24 h,significantly reduced
